From patent publication US20230043985A1, “ONCE DAILY CANCER TREATMENT REGIMEN WITH A PRMT5 INHIBITOR” (Pfizer Inc., priority 2019, published 2023)

Tests used:
[1] = Pre-clinical projection of human Vss, half-life and peak to trough ratio (unbound Vss scaling from rats and dogs; t1/2=0.693*Vss/CL); settings: for predicted peak to trough ratio in humans: based on ~6-hour projected half-life
Protocol: (§1) Briefly, in vivo plasma clearance (CL) in humans was predicted to be ˜3 and ˜0.6 mL/min/kg from human liver microsomes and hepatocytes, respectively. The conservative value of ˜3 mL/min/kg from human liver microsomes was used as the predicted CL. […] A half-life (t1/2) is predicted to be ˜6 h calculated by the equation: t1/2=0.693*Vss/CL.
Moreover, based on the ˜6-hour projected half-life for Compound 1 the likely peak to trough ratio in humans was predicted to be lower following twice daily (BID) dosing (˜4) compared to once daily (QD) dosing (˜8 or more). Lower peak to trough ratios are generally more desirable because they may help to minimize potential Cmax-related adverse effects (if any) while maintaining the therapeutic effects.
Half-life, for instance the half-life of Compound 1, refers to the time it takes for the plasma concentration of Compound 1 to decrease by 50% as calculated by the equation: 0.693*Vss/CL where Vss is the steady-state volume of distribution and CL is plasma clearance.

PRMT5 = molecular target: T1, PRMT5 (Homo sapiens, UniProt O14744); test: Blood pharmacodynamic biomarker plasma SDMA inhibition (LC-MS/MS) in patients; type: in vivo
T1 construct: endogenous in cells; host or cells: tissues of the dosed subjects (in vivo); SDMA measured in plasma by LC-MS/MS
T1 sequence (O14744 whole entry): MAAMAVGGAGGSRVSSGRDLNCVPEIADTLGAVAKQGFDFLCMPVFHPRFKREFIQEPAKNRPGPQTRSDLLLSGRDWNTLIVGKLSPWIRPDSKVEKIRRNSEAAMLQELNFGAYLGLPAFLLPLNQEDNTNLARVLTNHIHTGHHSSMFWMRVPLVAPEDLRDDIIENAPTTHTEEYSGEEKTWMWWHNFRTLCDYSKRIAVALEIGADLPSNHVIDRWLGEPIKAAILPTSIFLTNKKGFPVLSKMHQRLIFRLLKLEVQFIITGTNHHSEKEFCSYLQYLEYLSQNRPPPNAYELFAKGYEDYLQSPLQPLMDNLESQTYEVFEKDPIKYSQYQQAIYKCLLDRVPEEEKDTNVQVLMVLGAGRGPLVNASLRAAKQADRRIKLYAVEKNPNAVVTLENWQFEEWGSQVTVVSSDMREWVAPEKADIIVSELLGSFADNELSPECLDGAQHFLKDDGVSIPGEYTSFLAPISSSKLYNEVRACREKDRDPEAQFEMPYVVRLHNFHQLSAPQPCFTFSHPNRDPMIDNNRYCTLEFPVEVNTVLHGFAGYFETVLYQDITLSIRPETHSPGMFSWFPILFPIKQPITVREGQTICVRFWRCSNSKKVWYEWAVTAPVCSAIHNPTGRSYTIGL
T1 sequence (Q9BQA1 whole entry partner): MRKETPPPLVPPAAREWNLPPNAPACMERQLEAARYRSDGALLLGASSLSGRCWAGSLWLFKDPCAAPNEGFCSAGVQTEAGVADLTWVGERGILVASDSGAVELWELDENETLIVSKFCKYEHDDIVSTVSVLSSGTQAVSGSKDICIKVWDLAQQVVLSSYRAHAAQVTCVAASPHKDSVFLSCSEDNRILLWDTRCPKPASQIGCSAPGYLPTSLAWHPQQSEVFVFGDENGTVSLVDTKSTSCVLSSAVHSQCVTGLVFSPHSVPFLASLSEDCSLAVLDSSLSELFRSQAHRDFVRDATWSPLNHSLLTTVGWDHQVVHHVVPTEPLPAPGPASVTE
Protocol: The plasma SDMA (Symmetrical Dimethylarginine) level was used as a pharmacodynamic biomarker (PD) to monitor the inhibition effect of Compound 1. SDMA was chosen for the blood PD biomarker because PRMT5 catalyzes the formation of SDMA in a number of nuclear and cytoplasmic proteins, and PRMT5 inhibition would result in a decrease of SDMA. The quantitative determination of SDMA was performed by using a liquid chromatography mass spectrometry (LC-MS/MS) assay which is an exceedingly sensitive and specific analytical technique that can precisely determine the identities and concentration of compounds such as SDMA within a sample. The assay had been validated from 1-500 ng/ml in plasma. […] The plasma SDMA inhibition were around 60% for the first two cohorts (N=1 in each cohort), including 0.5 mg QD and 0.5 mg BID. The plasma SDMA inhibition was around 80% from cohort 3 to cohort 9, including 1 mg BID (N=2), 2 mg BID (N=3), 4 mg BID (N=3), 6 mg BID (N=4), 4 mg QD (N=5), 6 mg QD (N=6), and 8 mg QD (N=3).

[2] = Tolerability of BID dosing scheme in Phase 1 clinical trial; type: in vivo, human; settings: BID (twice daily) dosing scheme, patients
Description: These calculations, and in particular the half-life projection, were incorporated into the design of a Phase I clinical trial of Compound 1 [Study NCT03854227; A Phase 1 Study to Evaluate the Safety, Pharmacokinetics, and Pharmacodynamics of Escalating Doses Of [Compound 1] (PRMT Inhibitor) in Participants with Advanced or Metastatic Non-Small Cell Lung Cancer, Head And Neck Squamous Cell Carcinoma, Esophageal Cancer, Endometrial Cancer, Cervical Cancer And Bladder Cancer; first posted 26 Feb. 2019] which included BID (twice daily) dosing of 0.5 mg, 1 mg, 2 mg, 4 mg, 8 mg, 16 mg, 30 mg and 60 mg Compound 1. BID (twice daily) dosing was implemented for all doses thought to potentially be therapeutic in order to limit (i.e., lessen) the projected peak to trough ratio of Compound 1 in view of the predicted ˜6-hour half-life of Compound 1.
In this regard, it is noted that the primary indications for Compound 1 are various cancer types which are often accompanied by patients' physical and emotional difficulties in executing self-care. Moreover, many cancer indications become more prevalent with advancing age and is often accompanied by decline in memory. […]
Part 1A (dose escalation) has approximately 9 cohorts and enrolls approximately 40 participants. […] Dose limiting toxicities (DLT) were assessed at the end of Cycle 1 (28 days) to inform dose escalation and determine the MTD. […]

[3] = Pre-clinical prediction of human in vivo plasma clearance from human liver microsomes; type: in vitro ADME; settings: used as the predicted CL
Protocol: as §1

[4] = Phase 1 clinical PK of Compound 1 in patients (plasma, LC-MS/MS), Study NCT03854227; type: in vivo, human
Protocol: Peak to trough ratio refers to the ratio of the maximum concentration (Cmax) to minimum concentration (Cmin) of Compound 1 observed. Relevant to the present invention is the peak to trough ration during the dosing interval at “steady state” (day 15). Blood samples for the characterization of PK profiles were collected at pre- and post-dose on Day 1 (single dose) and Day 15 (steady state), and were analyzed for Compound 1 using a validated liquid chromatography coupled with tandem mass spectrometry (LC-MS/MS) assay. The lower limit of quantitation of the assay was 0.250 ng/mL. The representative day 1 median PK profile of Compound 1 dosed at 2 mg BID is provided at FIG. 1. The representative steady state (day 15) median PK profile of Compound 1 dosed at 2 mg BID is provided at FIG. 2. Table 1 (below) depicts representative mean maximum (Cmax) and minimum (Cmin) daily concentrations of Compound 1 at “steady state” (day 15) dosed BID at 2 mg. A population pharmacokinetic (PK) model was generated based on the preliminary PK data from 6 patients received Compound 1 orally at doses up to 2 mg BID at steady state. It was observed that actual mean peak to trough ratio at steady state (here, 15 days of dosing) of Compound 1 in the NCT03854227 clinical trial was ˜2 for BID dosing, substantially lower than that previously predicted based on pre-clinical data (˜4 for BID). Furthermore, based on this population PK model, the steady state PK profiles following QD vs BID dosing (using a 16 mg total daily dose as an example) were compared using the individual PK parameters from each of these 6 patients. […] Compound 1 was provided to patients in three cohorts as tablets ((1) 1 mg tablets (for patient dosed with 4 mg QD); and 2) 1 mg and 5 mg tablets (for patients dosed with 6 mg QD and 8 mg QD)) supplied in separate labeled bottles for oral administration. Because patients were receiving 4 mg QD, 6 mg QD, and 8 mg QD, respectively, each of them were instructed to swallow whole (i.e., without crushing or chewing) 1) four 1 mg tablets (for the 4 mg QD cohort (N=3)); 2) one 5 mg tablets and one 1 mg tablet (for the 6 mg cohort (N=6)); and 3) one 5 mg tablet and three 1 mg tablets (for the 8 mg cohort (N=2)) at the same time each morning with at least 8 oz (240 mL) of water on an empty stomach. No food or liquids other than water were consumed for 2 hours before and 1 hour following each dose administration. Patients in these cohorts took Compound 1 orally QD as described above for four cycles (a cycle is 28 days). Weekly visits to the clinic were made by the patient to evaluate the anti-cancer activity and side effects of Compound 1. FIG. 5, FIG. 6, and FIG. 7 show the Day 15 steady state median concentration-time profiles for 4 mg QD, 6 mg QD, and 8 mg QD, respectively. […]

[5] = Pre-clinical prediction of human in vivo plasma clearance from hepatocytes; type: in vitro ADME
Protocol: as §1

Cc1ncnc2c1ccn2[C@@H]1C[C@H](Oc2cc(C(F)F)c(F)c3c2CNCC3)[C@@H](O)[C@H]1O [Compound 1, (1S,2S,3S,5R)-3-((6-(difluoromethyl)-5-fluoro-1,2,3,4-tetrahydroisoquinolin-8-yl)oxy)-5-(4-methyl-7H-pyrrolo[2,3-d]pyrimidin-7-yl)cyclopentane-1,2-diol]
predicted half-life (t1/2) in humans ([1]; calculated t1/2=0.693*Vss/CL): ~6 h | predicted steady-state volume of distribution (Vss) in humans ([1]; mean unbound Vss scaling from rats and dogs, factoring in human plasma protein binding): 1.6 L/kg | predicted peak to trough ratio in humans ([1]; once daily (QD) dosing): ≥ 8 | predicted peak to trough ratio in humans ([1]; twice daily (BID) dosing): ~4 | plasma SDMA inhibition (PRMT5; cohort 3 to cohort 9: 1, 2, 4, 6 mg BID and 4, 6, 8 mg QD): around 80% | inhibition at 0.5 mg (PRMT5; human, first two cohorts: 0.5 mg QD and 0.5 mg BID (N=1 in each)): ~60% | SDMA reduction over time (PRMT5; plasma, different dose levels, patients (FIG. 8)): 60-80% | tolerability [2]: well tolerated | predicted in vivo plasma clearance (CL) in humans [3]: ~3 mL/min/kg | actual mean peak to trough ratio at steady state ([4]; BID dosing, doses up to 2 mg BID, 15 days of dosing, patients): ~2 | peak-to-trough ratio at steady state (median) ([4]; QD oral dosing (4 mg, 6 mg, 8 mg QD cohorts), Day 15, patients): 3.1 | Cmax at 15 day ([4]; human, plasma, 2 mg BID oral, steady state (day 15), patients, N=2, read-out: Cmax (mean maximum daily concentration)): 26.9 ng/mL | concentration at 15 day ([4]; human, plasma, 2 mg BID oral, steady state (day 15), patients, N=2, read-out: Cmin (mean minimum daily concentration)): 14.6 ng/mL | predicted in vivo plasma clearance (CL) in humans [5]: ~0.6 mL/min/kg
